In patent publication US5032577A, “Peptidylaminodiols” (Abbott Laboratories, priority 1987, dated 1991):
pIC50: −log10 of the molar value. Counter-ions that a name gives are not always drawn. Like-named read-outs stand apart in the source and are kept apart here.

Biological target: T1, human renal renin (Homo sapiens, UniProt P00797)
T1 construct: human renal renin, free from acid proteolytic activity; from tissue
T1 sequence (P00797 67-406): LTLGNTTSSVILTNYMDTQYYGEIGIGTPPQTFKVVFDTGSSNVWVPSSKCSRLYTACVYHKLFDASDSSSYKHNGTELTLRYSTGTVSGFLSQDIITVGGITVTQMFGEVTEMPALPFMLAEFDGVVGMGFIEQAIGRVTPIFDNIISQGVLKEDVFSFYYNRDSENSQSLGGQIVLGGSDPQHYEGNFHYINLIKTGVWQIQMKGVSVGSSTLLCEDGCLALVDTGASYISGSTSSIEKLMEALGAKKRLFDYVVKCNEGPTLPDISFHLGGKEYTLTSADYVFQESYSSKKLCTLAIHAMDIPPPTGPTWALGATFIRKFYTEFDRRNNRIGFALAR
Test: Inhibition of human renal renin in vitro; angiotensin I formed measured by radioimmunoassay
Assay type: biochemical

[1] = human renal renin free from acid proteolytic activity, renin substrate human angiotensinogen, 37° C., pH 6.0

## CC(C)C[C@H](O)[C@H](O)[C@H](CC1CCCCC1)NC(=O)[C@H](Cc1c[nH]cn1)NC(=O)[C@H](Cc1ccccc1)NC(=O)CC(C)(C)NC(=O)OCc1ccccc1 [Example 74, Cbz-[(β,β-di-Me)-β-Ala]-Phe-His Amide of 2(S)-Amino-1-cyclohexyl-3(R),4(S)-dihydroxy-6-methylheptane]
  pIC50: 9.15

## CC(C)C[C@H](O)[C@H](O)[C@H](CC1CCCCC1)NC(=O)[C@H](Cc1c[nH]cn1)NC(=O)[C@H](CC1CCCCC1)NC(=O)CC(C)(C)C [Example 21, TBA-CHA-His Amide of 2(S)-Amino-l-cyclohexyl-3(R),4(S)-dihydroxy-6-methylheptane]
  pIC50: 8.70

## COC(=O)C(N)CCCCC(=O)N[C@@H](Cc1ccc(OC)cc1)C(=O)N[C@@H](CC(C)C)C(=O)N[C@@H](CC1CCCCC1)[C@@H](O)[C@@H](O)CC(C)C (stereo partly drawn) [Example 193, 6-Amino-6-(methoxycarbonyl)hexanoyl-(4-OMe)Phe-Leu Amide of 2(S)-Amino-l-cyclohexyl-3(R),4(S)-dihydroxy-6-methylheptane]
  pIC50: 9.13

## CC(C)C[C@H](O)[C@H](O)[C@H](CC1CCCCC1)NC(=O)[C@H](C)NC(=O)[C@H](Cc1ccccc1)NC(=O)OC(C)(C)C [Example 33, Boc-phe-Ala Amide of 2(S)-Amino-l-cyclohexyl-3(R),4(S)-dihydroxy-6-methylheptane]
[1]
  pIC50: 8.30

## CC(C)C[C@H](O)[C@H](O)[C@H](CC1CCCCC1)NC(=O)[C@H](Cc1c[nH]cn1)NC(=O)[C@H](Cc1ccccc1)NC(=O)C(C)(C)N [Example 85, alpha-Aminoisobutyryl-Phe-His Amide of 2(S)-Amino-1-cyclohexyl-3(R),4(S)-dihydroxy-6-methylheptane]
  pIC50: 9.40

## CC(C)C[C@@H](O)[C@H](O)[C@H](CC1CCCCC1)NC(=O)[C@H](Cc1c[nH]cn1)NC(=O)[C@H](Cc1ccccc1)NC(=O)OC(C)(C)C [Example 17, Boc-Phe-His Amide of 2(S)-Amino-l-cyclohexyl-3(R),4(R)-dihydroxy-6-methylheptane]
  pIC50: 7.46

## COCCOCOCCN(C)C(=O)C[C@@H](Cc1ccccc1)C(=O)N[C@@H](Cc1c[nH]cn1)C(=O)N[C@@H](CC1CCCCC1)[C@@H](O)[C@@H](O)CC(C)C [Example 214, (2R)-2-Benzyl-3-(N-methyl-N-2-methoxyethoxymethoxyethylamino-carbonyl)propionyl-His Amide of 2(S)-Amino-l-cyclohexyl-3(R),4(S)-dihydroxy-6-methylheptane]
  pIC50: 9.62

## CC(C)C[C@H](O)[C@H](O)[C@H](CC1CCCCC1)NC(=O)[C@H](Cc1c[nH]cn1)NC(=O)[C@H](Cc1ccccc1)NC(=O)c1ccc[nH]1 [Example 89, (Pyrrol-2-yl-carbonyl)-Phe-His Amide of 2(S)-Amino-1-cyclohexyl-3(R),4(S)-dihydroxy-6-methylheptane]
  pIC50: 9.00

## CC(C)C[C@H](O)[C@H](O)[C@H](CC1CCCCC1)NC(=O)[C@H](Cc1c[nH]cn1)NC(=O)[C@H](Cc1ccccc1)NC(=O)CO [Example 103, Hydroxyacetyl-Phe-His Amide of 2(S)-Amino-l-cyclohexyl-3(R),4(S)-dihydroxy-6-methylheptane]
  pIC50: 9.00

## CC(C)C[C@H](O)[C@H](O)[C@H](CC1CCCCC1)NC(=O)[C@H](Cc1c[nH]cn1)NC(=O)[C@H](Cc1ccccc1)NC(=O)c1cnccn1 [Example 87, (Pyrazin-2-yl-carbonyl)-Phe-His Amide of 2(S)-Amino-1-cyclohexyl-3(R),4(S)-dihydroxy-6-methylheptane]
  pIC50: 9.26

## CCOC(=O)N[C@@H](Cc1ccc(OC)cc1)C(=O)N[C@@H](Cc1c[nH]cn1)C(=O)N[C@@H](CC1CCCCC1)[C@@H](O)[C@@H](O)CC(C)C [Example 22, Ethoxycarbonyl-(OCH3)Tyr-His Amide of 2(S)-Amino-1-cyclohexyl-3(R),4(S)-dihydroxy-6-methylheptane]
[1]
  pIC50: 8.82

## CC(C)C[C@H](O)[C@H](O)[C@H](CC1CCCCC1)NC(=O)[C@H](Cc1c[nH]cn1)NC(=O)C(CC(=O)N1CCOCC1)Cc1ccccc1 (single isomer, unassigned) [Example 143]
  pIC50: 9.52

## CC(C)C[C@H](NC(=O)[C@H](Cc1ccccc1)NC(=O)CCCC(=O)O)C(=O)N[C@@H](CC1CCCCC1)[C@@H](O)[C@@H](O)CC(C)C [Example 184, 4-Carboxybutyroyl-Phe-Leu Amide of 2(S)-Amino-l-cyclohexyl-3(R),4(S)-dihydroxy-6-methylheptane]
  pIC50: 9.23

## CC(C)C[C@H](O)[C@H](O)[C@H](CC1CCCCC1)NC(=O)[C@H](Cc1c[nH]cn1)NC(=O)C(CC(=O)N1CCOCC1)Oc1ccccc1 (single isomer, unassigned) [Example 141]
  pIC50: 8.26

## CC(C)C[C@H](O)[C@H](O)[C@H](CC1CCCCC1)NC(=O)[C@H](Cc1c[nH]cn1)NC(=O)[C@H](Cc1ccccc1)NC(=O)COCC(=O)O [Example 186, Carboxymethoxymethylcarbonyl-Phe-His Amide of 2(S)-Amino-1-cyclohexyl-3(R),4(S)-dihydroxy-6-methylheptane]
  pIC50: 8.70

## CC(C)C[C@H](O)[C@H](O)[C@H](CC1CCCCC1)NC(=O)[C@H](Cc1c[nH]cn1)NC(=O)[C@H](Cc1ccccc1)NC(=O)[C@@H](C)N [Example 70, H-D-Ala-Phe-His Amide of 2(S)-Amino-l-cyclohexyl-3(R), 4(S)-dihydroxy-6-methylheptane Diacetic Acid Salt]
  pIC50: 8.60

## CC(=O)N(C)[C@@H](Cc1ccccc1)C(=O)N[C@@H](Cc1c[nH]cn1)C(=O)N[C@@H](CC1CCCCC1)[C@@H](O)[C@@H](O)CC(C)C [Example 23, Acetyl-N-methylPhe-His Amide of 2(S)-Amino-1-cyclohexyl-3(R),4(S)-dihydroxy-6-methylheptane]
  pIC50: 8.00

## CC(C)[C@H](O)[C@H](O)[C@H](CC1CCCCC1)NC(=O)[C@H](Cc1c[nH]cn1)NC(=O)[C@H](Cc1ccccc1)NC(=O)OC(C)(C)C [Example 46, Boc-Phe-His Amide of 2(S)-Amino-l-cyclohexyl-3(R),4(S)-dihydroxy-5-methylhexane]
[1]
  pIC50: 8.82

## CC(C)C[C@H](O)[C@H](O)[C@H](CC1CCCCC1)NC(=O)[C@H](Cc1c[nH]cn1)NC(=O)[C@H](Cc1ccccc1)NC(=O)C1CCN(C(=O)OCc2ccccc2)CC1 [Example 67, Cbz-Isonipectoyl-Phe-His Amide of 2(S)-Amino-l-cyclohexyl-3(R),4(S)-dihydroxy-6-methylheptane]
  pIC50: 9.10

## CNCC(=O)N[C@@H](Cc1ccccc1)C(=O)N[C@@H](Cc1c[nH]cn1)C(=O)N[C@@H](CC1CCCCC1)[C@@H](O)[C@@H](O)CC(C)C [Example 64, H-Sar-Phe-His Amide of 2(S)-Amino-l-cyclohexyl-3(R),4(S)-dihydroxy-6-methylheptane Diacetic Acid Salt]
  pIC50: 8.52

## C=CCOC(=O)N[C@@H](Cc1ccccc1)C(=O)N[C@@H](CC(C)C)C(=O)N[C@@H](CC1CCCCC1)[C@@H](O)[C@@H](O)CC(C)C [Example 90, Allyloxycarbonyl-Phe-Leu Amide of 2(S)-Amino-l-cyclohexyl-3(R),4(S)-dihydroxy-6-methylheptaine]
  pIC50: 9.40

## COc1ccc(C[C@H](NC(=O)CCCCCN)C(=O)N[C@@H](Cc2c[nH]cn2)C(=O)N[C@@H](CC2CCCCC2)[C@@H](O)[C@@H](O)CC(C)C)cc1 [Example 173, 6-Aminohexanoyl-(4-methoxy)Phe-His Amide of (2S, 3R, 4S)-2-Amino-1-cyclohexyl-3,4-dihydroxy-6-methylheptane Diacetate Salt]
  pIC50: 9.05
